Consider one molecule from US10765680B2, “Combination of a MCL-1 inhibitor and a taxane compound, uses and pharmaceutical compositions thereof” (priority 2017, dated 2020).

The test system of data set [1] is SK-BR-3 breast cancer cell line. As to the kind of experiment: 72 hours CellTiter-Glo proliferation assay, SK-BR-3. Format: cell-based. The following applies: single agent, read-out: Abs IC50. How it is done: (§1) Compounds were dissolved in 100% DMSO (Sigma, Catalog # D2438-50 ML) at a stock concentration of 10 mM and stored at −20° C. until use. Compounds were arrayed in 2 ml deep 96-well plates (Greiner bio-one, catalog number 780271) serially diluted 3-fold. Compound 1 was used over a concentration range of 0.0-10.0 μM. Paclitaxel was used over a concentration range of 0.0-1.0 μM in breast cancer cells and 0.0-2.0 μM range in lung cancer cells.
(§2) All cell lines were purchased from the American Type Culture Collection and cultured according to vendor recommendations. […] All cell lines were determined to be free of mycoplasma contamination by a PCR detection assay performed at Idexx Radil (Columbia, Mo., USA) and authenticated by SNP analysis. […] Cells were expanded to T-75 flasks and assessed for viability using a Beckman-Coulter ViCell counter prior to plating. […]
(§3) Cell proliferation was measured in 72 hours CellTiter-Glo™ (CTG) assays and all results shown are the result of at least triplicate measurements. […] After 72 hours of compound treatment the effects of compounds on cell proliferation was determined using the CellTiter-Glo™ Luminescent Cell Viability Assay (Promega, Catalog # G7573). This is a homogeneous method to determine the number of viable cells in culture based on quantitation of the ATP present, which signals the presence of metabolically active cells. […]
A general note: In ATP-based viability assays light output follows the ATP content of the culture.

Data set [2] has as its system HCC1143 breast cancer cell line. The data set is described as follows: 72 hours CellTiter-Glo proliferation assay, HCC1143. Format: cell-based. To be noted: single agent, read-out: Abs IC50. As to the method: as §1, §2, §3
In data set [3] the test system is Hs 578T breast cancer cell line. As to the kind of experiment: 72 hours CellTiter-Glo proliferation assay, Hs 578T. Format: cell-based. To be noted: single agent, read-out: Abs IC50. How it is done:
as §1, §2, §3

Data set [4] deals with MDA-MB-453 breast cancer cell line. The data set is described as follows: 72 hours CellTiter-Glo proliferation assay, MDA-MB-453. Format: cell-based. To be noted: single agent, read-out: Abs IC50. As to the method: as §1, §2, §3
The subject of data set [5] is BT-549 breast cancer cell line. The data set is described as follows: 72 hours CellTiter-Glo proliferation assay, BT-549. Format: cell-based. The following applies: single agent, read-out: Abs IC50. How it is done: as §1, §2, §3
The test system of data set [6] is NCI-H522 lung cancer cell line. As to the kind of experiment: 72 hours CellTiter-Glo proliferation assay, NCI-H522. Format: cell-based. To be noted: single agent, read-out: Abs IC50. As to the method: as §1, §2, §3
Data set [7] concerns NCI-H23 lung cancer cell line. The data set is described as follows: 72 hours CellTiter-Glo proliferation assay, NCI-H23. Format: cell-based. To be noted: single agent, read-out: Abs IC50. How it is done:
as §1, §2, §3

Data set [8] in a line: MDA-MB-231 breast xenograft model, tolerability and surviving animals. The following applies: Compound 1 50 mg/kg dosed 0.5 h or 16 h after vehicle for paclitaxel. Format: in vivo, female nude rats. How it is done:
This study evaluated the antitumor activity and tolerability of Compound 1 in combination with paclitaxel in the triple negative breast cancer (TNBC) model, MDA-MB-231, in female NTac:NIH-Whn nude rats (Taconic).
Compound 1 (free base) and paclitaxel (Sandoz) was used in these studies. Paclitaxel was diluted as per manufacturer's instruction with sterile 5% (w/v) glucose solution to 1.5 mg/ml to administer 7.5 mg/kg in 5 ml/kg dose volume [final ethanol and Cremophor EL concentration was 10 and 15%, respectively in 5% (w/v) glucose solution]. Compound 1 was formulated in a liposomal formulation (Novartis) at 5 mg/ml to administer 50 mg/kg dose in 10 ml/kg dose volume.
MDA-MB-231, a triple negative breast cancer cell line, was obtained from ATCC cell bank. […] Tumor growth was monitored regularly post cell inoculation and animals were randomised into treatment groups (n=7-8) with a mean tumor volume of about 400 mm^3. […]
The vehicle for paclitaxel or paclitaxel was administered once a week (QW) as a slow bolus dose via a caudal vein 0.5 h or 16 h before the vehicle for Compound 1 or Compound 1 itself in liposomal formulation and these were administered by iv infusion over 15 minutes in a caudal vein. […] Tumor volumes were measured using calipers 2-3 times per week. Tumor size, in mm^3, was calculated from: (L×W^2×π/6), where W=width and L=length of the tumor. […]

The subject of data set [9] is MDA-MB-231 breast cancer cell line. As to the kind of experiment: 72 hours CellTiter-Glo proliferation assay, MDA-MB-231. The following applies: single agent, read-out: Abs IC50. Format: cell-based. How it is done:
as §1, §2, §3

Data set [10] relates to HCC1500 breast cancer cell line. The data set is described as follows: 72 hours CellTiter-Glo proliferation assay, HCC1500. Format: cell-based. To be noted: single agent, read-out: Abs IC50. As to the method:
as §1, §2, §3

Data set [11] relates to MDA-MB-468 breast cancer cell line. As to the kind of experiment: 72 hours CellTiter-Glo proliferation assay, MDA-MB-468. Format: cell-based. The following applies: single agent, read-out: Abs IC50. How it is done:
as §1, §2, §3

The test system of data set [12] is MDA-MB-231 xenografts. As to the kind of experiment: MDA-MB-231 breast xenograft model, antitumor efficacy. Format: in vivo, female nude rats. To be noted: Compound 1 50 mg/kg QW×7 iv infusion, liposomal formulation.

For orientation: IC50 means the concentration that gives 50% inhibition. Take `COc1ccccc1-c1nccc(COc2ccccc2C[C@@H](Oc2ncnc3sc(-c4ccc(F)cc4)c(-c4ccc(OCCN5CCN(C)CC5)c(Cl)c4C)c23)C(=O)O)n1` [Compound 1, (2R)-2-{[(5Sa)-5-{3-chloro-2-methyl-4-[2-(4-methylpiperazin-1-yl)ethoxy]phenyl}-6-(4-fluorophenyl)thieno[2,3-d]pyrimidin-4-yl]oxy}-3-(2-{[2-(2-methoxyphenyl)pyrimidin-4-yl]methoxy}phenyl)propanoic acid]: the IC50 in data set [1] is 0.301 µM; in [2] it was greater than 10 µM; in data set [3], 0.519 µM; in data set [4], greater than 10 µM; in data set [5] it was greater than 10 µM; in data set [6] it was 0.713 µM. Also, the IC50 in data set [7] was 0.16 µM; in data set [9] it was greater than 10 µM; in [10], 0.258 µM; in data set [11] it was 9.92 µM. The tolerability entry in [8] is “well tolerated”. In data set [12], the efficacy result is on record as “no efficacy”.
